From patent publication US20200077655A1, “Use of an Acyclic Picolinamide Compound as a Fungicide for Control of Phytopathogenic Fungi in Orchard, Vineyard and Plantation Crops” (Dow AgroSciences LLC, priority 2017, published 2020)

Tests used:
[1] = test system: Rhizopus stolonifer (RIZPST); experiment: Field microplot assessment on Rhizopus rot on apricots; format: in vivo; conditions: field grown apricots
Description: A field trial assessing the utility of Compound I on rot diseases of stone fruits was done using apricots in a microplot method, part of an experimental trial designed as a randomized complete block with four replications. In a microplot method, two mature fruits on a single branch or cluster of fruits were selected for each replication (for a total of 10 replications) instead of using an entire replication. Colored flagging identified treatments. Fungicidal treatments containing Compound I, applied in a 5% EC formulation and tank mixed with an adjuvant (Trycol, 50% w/w at 0.2% v/v), were sprayed on apricots (PRNAR) at rates of 50, 100, and 150 grams of active ingredient per hectare (g ai/ha). The applications to the selected mature apricots were done at 7 days before harvest using a hand held manual spray bottle at a water volume of 500 L/ha. One day after application, a ZipLoc plastic bag was placed over the fruit or fruit cluster and an inoculation mix of MONIFC (Rhizopus was from natural population present in the orchard) was sprayed inside covering the fruits. The plastic bags were removed after 24 hours. At harvest, the fruits were collected in the field and placed in plastic Tupperware containers. 150 mL of de-ionized water was poured in the bottom of the Tupperware containers and the fruits were sprayed with a light mist of water. The containers were brought to the lab, enclosed in a large trash bag to keep the humidity high, and incubated on a lab bench at approximately 23° C. Visual disease incidence was assessed during the trial at 9 and 16 days after application. Area under the disease progress curve (AUDPC) was calculated for each plot using the sets of recorded incidence data. Relative AUDPC (% control based on AUDPC) was calculated as percent of the nontreated control.

[2] = test system: Rhizopus stolonifer (RIZPST); experiment: Field microplot assessment on Rhizopus rot on peaches; format: in vivo; conditions: field grown peaches, 17 days after first application

COc1ccnc(C(=O)N[C@@H](C)C(=O)O[C@@H](C)C(c2ccc(F)cc2)c2ccc(F)cc2)c1OC(C)=O [Compound I, (S)-1,1-bis(4-fluorophenyl)propan-2-yl (3-acetoxy-4-methoxypicolinoyl)-L-alaninate]
Percent control (AUDPC) from fruit incidence, RIZPST ([1]; 50 g ai/ha): B (51-75)
Percent control (AUDPC) from fruit incidence, RIZPST ([1]; 100 g ai/ha): C (26-50)
Percent control (AUDPC) from fruit incidence, RIZPST ([1]; 150 g ai/ha): C (26-50)
RIZPST, percentage of diseased peaches (Incidence) ([2]; 50 g ai/ha): 67.5%
RIZPST, percentage of diseased peaches (Incidence) ([2]; 100 g ai/ha): 22.5%
RIZPST, percentage of diseased peaches (Incidence) ([2]; 150 g ai/ha): 35.0%
